This passage reports Rate and Km results from patent US20040248769A1, “Enzyme inhibitors for inactivating allergens” (priority 2001, published 2004).

The test system of one assay is cat fur enzyme(s). The assay is described as follows: Rates of cleavage at varying substrate concentration and Km. In kind it is biochemical. Particulars: for Rate: cat fur sample. The protocol:
(§1) In the first series of experiments the sample (12 μl) was assayed against a range of serine and cysteine proteinase aminomethylcoumarylamide (NHMec) substrates (obtained commercially from Bachem) under standard conditions of 5 μM substrate concentration (from a 100-fold stock solution in dimethyl sulfoxide) to give a final volume of 120 μl. After addition of substrate the rate without sample was determined (which in all cases was zero), after which the sample was applied and the progress of the reaction was followed for a further 15 min. The slope obtained (fluorescence vs time) was analysed by linear regression and converted to rate of product formation (nM/min) see results table 2.
A rough estimate of the Km for the cleavage of Z-Gly-Gly-Arg-NHMec and of Z-Phe-Arg-NHMec by the cat fur enzyme(s) were determined using the same procedure with varying concentrations of these substrates see results table 3.
As the activity follows normal Michaelis-Menten kinetics it is clear that it is due to the activity of one or more biological catalysts or enzymes.

For assay [1], the system named is Dog1 S1 fur extract proteolytic activity. The assay is described as follows: Proteolytic activity of fur extract against NHMec substrates. Format: biochemical, dog. To be noted: sample Dog1 S1 (fur), 5 μM substrate, 37° C., pH 7.5. The protocol: (§2) A clean pet brush was used to brush three common English domestic cats. Fur from guinea pigs, rabbit, dogs and horse was collected in the same way. A different brush was used for each species and between brushings these were cleaned thoroughly in a denaturing detergent solution (Fairy® detergent) and then ethanol. The brushings were transferred to a sterile universal container and extracted by shaking in an extraction buffer, 50 mM Tris.HCl, 5 mM CaCl2, pH 7.5 (0.1 g/ml). The solution was recovered by centrifugation and stored at −20° C. in aliquots. Saliva was collected from a mastiff-type dog and stored frozen in aliquots until assayed. […]
as §1

For assay [2], the system named is Dog1 S2 saliva proteolytic activity. The assay is described as follows: Proteolytic activity of saliva against NHMec substrates. In kind it is biochemical, dog. Particulars: sample Dog1 S2 (saliva), 5 μM substrate, 37° C., pH 7.5. The protocol: as §2, §1
Assay [3] deals with G. pig1 S1 fur extract proteolytic activity. The assay is described as follows: Proteolytic activity of fur extract against NHMec substrates. Format: biochemical, guinea pig. To be noted: sample G. pig1 S1, 5 μM substrate, 37° C., pH 7.5. As for the experimental part:
as §2, §1

The test system of assay [4] is G. pig2 S1 fur extract proteolytic activity. The assay is described as above. Format: biochemical, guinea pig. Particulars: sample G. pig2 S1, 5 μM substrate, 37° C., pH 7.5. As for the experimental part: as §2, §1
The subject of assay [5] is Rabbit1 S1 fur extract proteolytic activity. The description is as above. Particulars: sample Rabbit1 S1, 5 μM substrate, 37° C., pH 7.5. Format: biochemical, rabbit. As for the experimental part:
as §2, §1

The test system of assay [6] is Cat3 S1 fur extract proteolytic activity. The assay is described as above. To be noted: sample Cat3 S1, 5 μM substrate, 37° C., pH 7.5. In kind it is biochemical, cat. As for the experimental part: (§3) A clean pet brush was used to brush three common English domestic cats. Fur from guinea pigs, rabbit, dogs and horse was collected in the same way. A different brush was used for each species and between brushings these were cleaned thoroughly in a denaturing detergent solution (Fairy® detergent) and then ethanol. The brushings were transferred to a sterile universal container and extracted by shaking in an extraction buffer, 50 mM Tris.HCl, 5 mM CaCl2, pH 7.5 (0.1 g/ml). The solution was recovered by centrifugation and stored at −20° C. in aliquots. Saliva was collected from a mastiff-type dog and stored frozen in aliquots until assayed. Sample aliquots were assayed for proteolytic activity using fluorometric blocked peptidylaminomethylcoumarylamide substrates in the cuvette of a Perkin Elmer fluorimeter at 37° C. The fluorimeter was standardised with a known concentration of methylcoumarin, and the assays were designed so that no more than 10% substrate hydrolysis occurred.
(§4) Assays were performed in assay buffer; 50 mM Tris.HCl, 5 mM CaCl2, 0.1% CHAPS, pH 7.5. Data were collected in real-time on a personal computer using the Flusys software package.
as §1

In assay [7] the test system is Cat1 S3 fur extract proteolytic activity. Described as above. Particulars: sample Cat1 S3, 5 μM substrate, 37° C., pH 7.5. Format: biochemical, cat. As for the experimental part:
as §3, §4, §1

Where a SMILES comes first, the peptide text is derived from it. The star is where a group is joined. AMC = Cc1cc(=O)oc2cc(N*)ccc12; Cbz = O=C(OCc1ccccc1)*

The term Km denotes the substrate concentration at which the rate is half of its maximum.

For `Cc1cc(=O)oc2cc(NC(=O)C(CCCN=C(N)N)NC(=O)C(Cc3ccccc3)NC(=O)OCc3ccccc3)ccc12` (stereo not drawn) [Z-Phe-Arg-NHMec] (Cbz-Phe-Arg-{AMC}; configuration not given here), the Rate in the assay with cat fur enzyme(s) ([Substrate] 0.5 μM) is 3.74 nM/min; in the assay with cat fur enzyme(s) ([Substrate] 1.0 μM), 6.99 nM/min; with cat fur enzyme(s) ([Substrate] 2.0 μM) it was 10.2 nM/min; with cat fur enzyme(s) ([Substrate] 5 μM) it was 27.3 nM/min; with cat fur enzyme(s) ([Substrate] 60 μM), 35.4 nM/min; with cat fur enzyme(s) ([Substrate] 80 μM) it was 32.3 nM/min. In addition, the Rate is on record as 33.7 nM/min with cat fur enzyme(s) ([Substrate] 100 μM); 40.6 nM/min in assay [1]; 1786.9 nM/min in assay [2]; 9.11 nM/min in assay [3]; 18.66 nM/min in assay [4]; 3.93 nM/min in assay [5]. Moreover, the Rate in assay [6] turned out to be 24.5 nM/min; in assay [7], 43.5 nM/min. Also, the Km in the assay with cat fur enzyme(s) (non-linear regression, Enzfitter, rough estimate) was 3.2 ± 0.9 µM.
